IC50 data for 14 compounds are collected here from US8362249B2, “CXCR3 receptor antagonists” (Boehringer Ingelheim International GmbH, priority 2009, dated 2013).

The target in the assay is CXCR3 (Macaca fascicularis, UniProt A0A2K5UV19). Nature of the assay: functional cellular assay measuring calcium flux in CXCR3 transfected cells (block of CXCR3/IP-10 interaction). The note with it: IP-10 induced intracellular calcium flux; Cyno-CHO cells stably expressing recombinant CXCR3 and G-alpha-16. Format: cell-based. As to the method: Compounds are assessed for the ability to block the interaction of CXCR3 and IP-10 in a functional cellular assay measuring calcium flux in CXCR3 transfected cells.
Cyno-CHO cells, stably expressing recombinant CXCR3 and G-alpha-16 are grown in F12 medium (Mediatech #45000-360) supplemented with 10% (V/V) FBS (Mediatech #35-01500), 1% Geneticin (Invitrogen #10131-027) and 0.2% Zeocin (Invitrogen #R250-05). The cells are spun down and re-suspended in growth media to a concentration of 4.8 E5 cells/mL. 25 microL of cell suspension is added to each well of a BD-384-well TC treated plate, providing 12,000 cells/well. The plate is incubated at 37° C./5% CO2 overnight. On the day of the assay, the plates are removed, the media is flicked out and 25 microL of Ca-4 dye in assay buffer (HBSS, 10 mM HEPES ph 7.4), containing 2 mM probenacid is added to each well. The cell assay plates are then incubated at 37° C./5% CO2 for one hour.
Test compounds are dissolved in DMSO and diluted to 1.045 mM in DMSO. Just prior to assay, 2.75 microL of appropriately diluted test compound are added to each well of a 384 well plate containing 45 microL of HBSS buffer. After mixing, 5 microL of diluted compound are added to each well of the cell assay plate for a final assay concentration of 10 microM. The plate is incubated at room temperature for 15 min. 10 microL of IP-10 stock solution in HBSS (4× EC80 concentration) are added to each well of the cell assay plate except those cells reserved as blank wells containing buffer only. Intracellular calcium flux is recorded on the HAMAMTSU FDSS6000, using excitation at 480 nm and emission at 540 nm. Data are analyzed using Activity Base software.
In general, the preferred potency range (IC50) of compounds in the above assay is between 1 nM to 3 μM, and the most preferred potency range is 1 nM to 20 nM.

Structures are written as SMILES.

Sequence of CXCR3 (A0A2K5UV19 entry or part of it): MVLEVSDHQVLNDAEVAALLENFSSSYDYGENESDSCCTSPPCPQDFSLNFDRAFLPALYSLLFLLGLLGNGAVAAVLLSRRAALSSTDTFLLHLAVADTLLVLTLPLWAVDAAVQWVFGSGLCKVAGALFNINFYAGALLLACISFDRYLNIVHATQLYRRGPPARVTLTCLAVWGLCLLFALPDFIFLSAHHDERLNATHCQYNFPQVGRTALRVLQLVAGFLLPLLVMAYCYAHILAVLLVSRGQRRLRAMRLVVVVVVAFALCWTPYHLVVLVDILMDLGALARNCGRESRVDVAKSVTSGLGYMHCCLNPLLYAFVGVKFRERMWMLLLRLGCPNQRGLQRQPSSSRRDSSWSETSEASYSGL

Consider `COc1cccc(C(=O)NCC(=O)N2CCN(c3ccccc3C(=O)Nc3cccnc3)CC2)c1OC` [2,3-Dimethoxy-N-(2-oxo-2-{4-[2-(pyridin-3-ylcarbamoyl)-phenyl]-piperazin-1-yl}-ethyl)-benzamide], for which the IC50 was 12.5 nM.

`O=C(Nc1ccncc1)c1ccccc1N1CCN(C(=O)CNc2ccccc2)CC1` [2-[4-(2-Phenylamino-acetyl)-piperazin-1-yl]-N-pyridin-4-yl-benzamide]: the IC50 stood at 19 nM.

As to `O=C(Nc1ccncc1)c1ccccc1N1CCN(C(=O)CN2CCCCC2=O)CC1` [2-{4-[2-(2-Oxo-piperidin-1-yl)-acetyl]-piperazin-1-yl}-N-pyridin-4-yl-benzamide], the 50% inhibitory concentration (IC50) stood at 7.4 nM.

Turning to `Cc1cc(C)n(CC(=O)N2CCN(c3ccccc3C(=O)Nc3nc4c(s3)CN(C)CC4)CC2)n1` [2-{4-[2-(3,5-Dimethyl-pyrazol-1-yl)-acetyl]-piperazin-1-yl}-N-(5-methyl-4,5,6,7-tetrahydro-thiazolo[5,4-c]pyridin-2-yl)-benzamide], the IC50 came out at 9.7 nM.

Take `Cc1cc(C)n(CC(=O)N2CCN(c3ccc(Cl)cc3C(=O)Nc3nc4c(s3)CN(C)CC4)CC2)n1` [5-Chloro-2-{4-[2-(3,5-dimethyl-pyrazol-1-yl)-acetyl]-piperazin-1-yl}-N-(5-methyl-4,5,6,7-tetrahydro-thiazolo[5,4-c]pyridin-2-yl)-benzamide]: the IC50 came to 15 nM.

Turning to `Cc1cc(C)n(CC(=O)N2CCN(c3ccccc3NC(=O)c3cncc(Br)c3)CC2)n1` [5-Bromo-N-(2-{4-[2-(3,5-dimethyl-pyrazol-1-yl)-acetyl]-piperazin-1-yl}-phenyl)-nicotinamide], the IC50 worked out at 5.7 nM.

For `Cc1cc(C)n(CC(=O)N2CCN(c3ccccc3C(=O)Nc3nc(-c4ccccn4)cs3)CC2)n1` [2-{4-[2-(3,5-Dimethyl-pyrazol-1-yl)-acetyl]-piperazin-1-yl}-N-(4-pyridin-2-yl-thiazol-2-yl)-benzamide], the IC50 was determined as 11.5 nM.

As to `Cc1cc(C)n(CC(=O)N2CCN(c3ccccc3NC(=O)c3ccccc3)CC2)n1` [N-(2-{4-[2-(3,5-Dimethyl-pyrazol-1-yl)-acetyl]-piperazin-1-yl}-phenyl)-benzamide], the IC50 worked out at 6.6 nM.

As to `O=C(Nc1cncc(F)c1)c1ccccc1N1CCN(C(=O)Cn2ccc3ccncc32)CC1` [N-(5-Fluoro-pyridin-3-yl)-2-[4-(2-pyrrolo[2,3-c]pyridin-1-yl-acetyl)-piperazin-1-yl]-benzamide], the IC50 was found to be 1.3 nM.

On to `Cc1cc(C)n(CC(=O)N2CCN(c3ccccc3C(=O)Nc3nc(C)c(C(C)(C)C)s3)CC2)n1` [N-(5-tert-Butyl-4-methyl-thiazol-2-yl)-2-{4-[2-(3,5-dimethyl-pyrazol-1-yl)-acetyl]-piperazin-1-yl}-benzamide], for which the IC50 was 11 nM.

With `COc1cc(NC(=O)c2ccccc2N2CCN(C(=O)CN(C)C(=O)c3ncoc3C)CC2)ccn1` [5-Methyl-oxazole-4-carboxylic acid (2-{4-[2-(2-methoxy-pyridin-4-ylcarbamoyl)-phenyl]-piperazin-1-yl}-2-oxo-ethyl)-methyl-amide], the IC50 was found to be 5.5 nM.

Regarding `O=C(Nc1ccncc1)c1ccccc1N1CCN(C(=O)CN2C(=O)c3ccccc3C2=O)CC1` [2-{4-[2-(1,3-Dioxo-1,3-dihydro-isoindol-2-yl)-acetyl]-piperazin-1-yl}-N-pyridin-4-yl-benzamide], the IC50 turned out to be 6.1 nM.

`Cc1cc(C)n(CC(=O)N2CCN(c3ccccc3C(=O)Nc3ccc(C(F)(F)F)cc3)CC2)n1` [2-{4-[2-(3,5-Dimethyl-pyrazol-1-yl)-acetyl]-piperazin-1-yl}-N-(4-trifluoromethyl-phenyl)-benzamide]: the IC50 worked out at 4.2 nM.

As to `CS(=O)(=O)c1ccc(NC(=O)c2ccccc2N2CCN(C(=O)Cn3c(C(=O)O)cc4cc(Cl)ccc43)CC2)cc1` [5-Chloro-1-(2-{4-[2-(4-methanesulfonyl-phenylcarbamoyl)-phenyl]-piperazin-1-yl}-2-oxo-ethyl)-1-H-indole-2-carboxylic acid], the IC50 was 25 nM.
